Test results: patent US20240293322A1, “SUSTAINED RELEASE FORMULATIONS COMPRISING A SELECTIVE ANDROGEN RECEPTOR MODULATOR” (University of Iowa Research Foundation, priority 2021, published 2024)
“Also recorded” adds a separate entry of the source.

How the values were obtained:
[1] = test system: acidic saline muscle pain model; assay: Acidic saline muscle pain (fibromyalgia) model, muscle withdrawal threshold (MWT); format: in vivo, C57BL/6J mice
Method: A SARM was tested its ability to alleviate pain using a model of fibromyalgia (Sluka et al., 2001). The model is induced by repeated injections of acidic saline into the gastrocnemius muscle, 5 days apart. After the second injection animals develop widespread pain behavior, termed hyperalgesia, that resolves in 4 weeks. Pain-behaviors are tested by using a device to apply deep pressure to the gastrocnemius muscle; withdrawal from this pressure is considered a pain-response.
Pain was induced using the model after which daily administration of SARMs or a vehicle was performed for 4 weeks. Withdrawal thresholds of the muscle were tested before and after induction of the model, and weekly after administration of the SARM. A decrease in withdrawal threshold is interpreted as increased pain sensitivity or hyperalgesia. […] Daily administration is clinically cumbersome and results in lower adherence to the treatment and so a long acting SARM containing microparticle formulation was developed to treat pain, e.g., chronic pain.
(§1) A decrease in MWT was interpreted as muscle hyperalgesia.
The SARM, (s)-3-(4-cyanophenoxy)-n-(4-cyano-3-(trifluoromethyl)phenyl)-2-hydroxy-2-methylpropanamide (Achemblock, San Francisco, CA, USA), was used in the following experiments. To test for the analgesic effects of SARM the acidic saline muscle pain model was induced and the presence of hyperalgesia 24 hours after model induction was confirmed. Animals then received daily subcutaneous injections of either SARM or vehicle for the next 4 weeks. For SARM administration, the drug was dissolved in dimethyl sulfoxide (DMSO; Fisher Scientific, Waltham, MA, USA) at a concentration of 50 mg/ml and then diluted in polyethylene glycol 300 (PEG300; Med Lab Supply, Pompano Beach, FL, USA) until a final solution of 10 mg/ml in 80:20 PEG300:DMSO was achieved. Animals were anesthetized with 2-4% isoflurane and SARM (25 mg/kg) or vehicle were delivered subcutaneously. This dose was chosen based on prior literature which found greatest effect at this dose (Gao et al., 2004). […]

[2] = test system: acidic saline muscle pain model; assay: Acidic saline muscle pain model, paw allodynia by von Frey monofilament; format: in vivo, C57BL/6J mice; settings: daily SARM 25 mg/kg s.c. for 4 weeks vs vehicle; ipsilateral and contralateral paw
Excerpt: as §1

C57BL/6J mice = assay: Rewarding behavior, condition place preference testing; format: in vivo; settings: SARM 25 mg/kg s.c. daily for 5 days
Excerpt: To test if SARM produced rewarding behavior condition place preference testing was employed using a 9-day testing paradigm. The boxes used for testing were 27.5″ by 8.25″ divided into two 10.75″ by 8.25″ pairing chambers and a 4.75″ by 8.25″ middle chamber. The pairing chambers had different colored walls (solid black vs black and white stripe) and floor textures (smooth vs ridged). The middle chamber had solid black walls with smooth floors and was illuminated. Acclimation and baseline testing occurred over the first 3 days. Animals were placed in boxes with access to all 3 chambers for 15 minutes. On the third day, time spent in each box was recorded. Drug pairing then occurred for 5 days on days 4 through 8. Each day, animals were injected subcutaneously with SARM vehicle (80:20; PEG300:DMSO) and placed in a pairing chamber for 60 minutes. Animals were then returned to their home cages. Four hours later animals were subcutaneously injected with SARM (25 mg/kg) and were confined to the opposite pairing chamber for 60 minutes. Chamber pairings were counterbalanced amongst animals. Following pairing, on day 9, animals were placed in boxes with access to all 3 chambers for 15 minutes with time spent in each box recorded. In order to determine if rewarding behavior was present, the amount of time spent in SARM paired chambers was compared between baseline and post drug pairing.

## C[C@](O)(COc1ccc(C#N)cc1)C(=O)Nc1ccc(C#N)c(C(F)(F)F)c1 [SARM, (s)-3-(4-cyanophenoxy)-n-(4-cyano-3-(trifluoromethyl)phenyl)-2-hydroxy-2-methylpropanamide]
[1]; Example 1
  effect on hyperalgesia in male versus female mice: worked equally in male and female mice
[1]; Example 1: daily administration of free SARM for 4 weeks vs vehicle, left and right muscle
  withdrawal thresholds of the gastrocnemius muscle (pain thresholds, muscle hyperalgesia): higher pain thresholds than those receiving vehicle treatment; also recorded: reversed muscle hyperalgesia
[1]; daily SARM 25 mg/kg s.c. for 4 weeks vs vehicle, ipsilateral and contralateral limb
  muscle hyperalgesia measured via muscle withdrawal threshold (MWT): alleviated decreased MWT bilaterally in both sexes; also recorded: significant reversal in muscle hyperalgesia; also recorded: reversed muscle hyperalgesia
[2]
  paw allodynia / paw hypersensitivity (von Frey number of responses): no effect on paw allodynia; also recorded: unable to alleviate paw hypersensitivity
C57BL/6J mice; baseline vs post drug pairing
  preference for SARM paired chamber (reward like behavior): did not show an increased preference for the SARM paired chamber; also recorded: no preference for the SARM paired chamber
C57BL/6J mice; baseline 380.3±51.0 sec, mean±SEM
  time spent in SARM paired chamber, post drug pairing: 385.7 ± 37.1 s
